Key:
mice [1] = experiment: Open field test; type: in vivo; conditions: 6 min, Diazepam 2 mg/kg
Description: (§1) After the mice arrived, they were acclimatized for a week to enter the experiment. There were 12 mice in each group.
(§2) The normal group mice were gavaged with the same volume of purified water, and the gavage doses of other groups were illustrated in the results table section below. The mice were gavaged every morning at fixed time (9:00) with a gavage volume of 0.1 ml·10 g^−1. the administration lasted for one month, and behavioral assays were performed 1 h after the last gavage.
The test was performed inside an open field box with 50 cm long, 50 cm wide, and 50 cm deep. The bottom of the open field box was equally divided into nine squares, with the right middle area being the central area and the remaining area being the peripheral area. The bottom and surrounding of the open field box were all white. The test was performed in a quiet weak red light environment. At the beginning, the mice were placed in the center of the open field box, and the activity within 6 minutes was observed. Total running distance, running distance in central area and number of entries into central area of the mice were recorded.

mice [2] = experiment: Light-dark box test; type: in vivo; conditions: gavage one month, 5 min, Diazepam 2 mg/kg
Description: as §1, §2
The light and dark box is composed of an integral box which is divided into two compartments (light area and dark area) of the same size (L×w×H=25 cm×25 cm×30 cm) by a middle gate (6.5 cm×6.5 cm). The light area is illuminated by white light, and the dark area is illuminated by red light. At the beginning of the test, each mouse was placed in the center of the light area facing the partition wall, and the middle gate was removed. Once four claws of one mouse entered the compartment, it was recorded as one entry. Supermaze software was used to record the distance in light area, retention time in light area and number of entries into light area in 5 minutes.

CN1C(=O)CN=C(c2ccccc2)c2cc(Cl)ccc21 [Diazepam]
Total running distance (mice [1]; gavage daily for one month, 1 h after last gavage): 29927 ± 2380
Number of entries into central area (mice [1]; gavage one month): 12.78 ± 1.498
Running distance in central area (mice [1]; gavage one month): 2168 ± 218.6
Distance in light area (mice [2]): 18141 ± 1011
Number of entries into light area (mice [2]): 18.92 ± 1.540

— patent publication US12447186B2, “Traditional Chinese medicine compound composition with anti-anxiety effect and preparation method and applications thereof” (Chenland Nutritionals Inc., priority 2020, dated 2025)
